Laboratory results taken from patent publication US7250410B2, “Cyclic nucleotide phosphodiesterase inhibitors, preparation and uses thereof” (Via Pharmaceuticals, Inc., priority 2001, dated 2007).

What was measured:
[1] = system: PDE1; assay: Selectivity: inhibition of PDE1, radioenzymatic phosphodiesterase assay; assay type: biochemical, bovine; set-up: PDE1 percentage inhibition at 10 μM: unit: %; conditions: Table 4 Selectivity; compound at 10 μM
Method: (§1) A 3 g segment of bovine aortic media cut into pieces with scissors was homogenized with an ultra-turrax then a potter glass/glass homogenizer in 7 volumes by weight of buffer A containing a protease inhibitor cocktail (20 mM Tris-HCl, 0.25 M saccharose, 2 mM magnesium acetate, 1 mM dithiothreitol, 5 mM EGTA, 2000 U/ml aprotinin, 10 mg/l leupeptin and 10 mg/l soya trypsic inhibitor). The homogenizate was centrifuged at 105,000 g for 1 hour. The supernatant was loaded on a DEAE-Sephacel column (15×1.6 cm) pre-equilibrated with buffer B (buffer A without the saccharose, EGTA and protease inhibitors). The column was washed until there was no detectable absorption at 280 nm, then eluted with a linear gradient of NaCl (0–0.5 M) in buffer B. 3-ml fractions were collected and enzyme activity was determined under the conditions described hereinafter to localize the different enzymes PDE1, PDE3, PDE4 and PDE5, which were aliquoted and frozen at −80° C. (Lugnier et al., Biochem. Phamacol., 35 (1986) 1746–1751). PDE2 was prepared from bovine endothelial cells by the same methods (Lugnier and Schini, Biochem. Pharmacol. 1990, 39; 75–84).
(§2) Cyclic nucleotide phosphodiesterase activity was determined by a radioenzymatic method using tritium-labelled cyclic GMP or AMP (1 μM) as substrate (Lugnier et al., 1986). ^3H-labelled adenosine or guanosine monophosphate formed by hydrolysis of the radiolabelled cyclic nucleotide was then converted to ^3H-labelled adenosine or guanosine in a second reaction with […] in excess. The nucleoside formed was separated from the nucleotides by anion exchange chromatography. Nucleoside radioactivity was determined by liquid scintillation counting. Enzymatic incubations were carried out under conditions allowing no more than 15% hydrolysis of the substrate; each point was performed in duplicate.
(§3) The activity of the compounds was evaluated on other phosphodiesterase isoforms, particularly basal state or calmodulin-activated PDE1 from vascular smooth muscle, basal state or cyclic GMP-activated PDE2 from vascular endothelial cells, PDE3 and PDE5 from vascular smooth muscle.
(§4) The results obtained are presented in Table 4 hereinafter and are expressed as the percentage inhibition of enzymatic activity produced by […] of the tested compound.

[2] = system: IL1β, IL6 and IL8; assay: IL1β, IL6 and IL8 secretion by LPS-activated mononuclear cells from venous blood; assay type: cell-based, human
[3] = target: T1, PDE3 (Bos taurus, UniProt A0A3Q1M1E8); assay: Selectivity: inhibition of PDE3, radioenzymatic phosphodiesterase assay; assay type: biochemical, bovine; conditions: read-out: PDE3 percentage inhibition at 10 μM
T1 sequence (A0A3Q1M1E8 1-1126): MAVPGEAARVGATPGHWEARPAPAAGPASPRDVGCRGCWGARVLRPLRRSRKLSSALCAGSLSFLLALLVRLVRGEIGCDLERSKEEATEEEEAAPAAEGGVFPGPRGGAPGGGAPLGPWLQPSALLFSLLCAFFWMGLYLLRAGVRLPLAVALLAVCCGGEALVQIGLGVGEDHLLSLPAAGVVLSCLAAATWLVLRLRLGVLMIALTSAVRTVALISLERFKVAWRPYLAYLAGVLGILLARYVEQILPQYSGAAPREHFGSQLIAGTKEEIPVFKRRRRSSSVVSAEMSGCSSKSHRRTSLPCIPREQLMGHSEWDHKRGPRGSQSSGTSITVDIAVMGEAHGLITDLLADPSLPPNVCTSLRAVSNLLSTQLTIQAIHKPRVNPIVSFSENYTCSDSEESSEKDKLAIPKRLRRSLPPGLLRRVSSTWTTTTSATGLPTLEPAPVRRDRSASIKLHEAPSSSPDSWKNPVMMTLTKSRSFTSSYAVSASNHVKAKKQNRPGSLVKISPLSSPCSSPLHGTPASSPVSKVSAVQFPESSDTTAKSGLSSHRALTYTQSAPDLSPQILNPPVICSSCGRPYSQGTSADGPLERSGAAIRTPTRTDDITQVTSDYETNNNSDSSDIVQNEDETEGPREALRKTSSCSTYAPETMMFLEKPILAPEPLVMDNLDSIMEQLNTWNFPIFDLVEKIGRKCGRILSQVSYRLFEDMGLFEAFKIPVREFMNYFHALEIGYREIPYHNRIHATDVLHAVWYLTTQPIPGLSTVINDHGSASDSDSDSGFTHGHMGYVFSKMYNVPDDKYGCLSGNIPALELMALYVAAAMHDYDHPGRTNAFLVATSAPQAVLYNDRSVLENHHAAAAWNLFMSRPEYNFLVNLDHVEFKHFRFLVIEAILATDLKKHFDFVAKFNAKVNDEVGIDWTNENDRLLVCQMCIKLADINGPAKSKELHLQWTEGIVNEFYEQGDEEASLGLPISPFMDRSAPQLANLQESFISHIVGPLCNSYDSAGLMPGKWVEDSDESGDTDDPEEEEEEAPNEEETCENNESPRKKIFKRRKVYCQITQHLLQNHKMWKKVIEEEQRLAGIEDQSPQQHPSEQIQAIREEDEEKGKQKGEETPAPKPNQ
Method: as §1, §2, §3, §4

## CCOc1cc2c(cc1OC)C(c1ccccc1)=NCC(=O)N2C [IIda, 8-ethoxy-7-methoxy-1-methyl-5-phenyl-1,3-dihydro-2H-1,4-benzodiazepin-2-one]
[1]
  PDE1 percentage inhibition at 10 μM: 26%
[2]; compound at 1 μM
  IL1β, IL6 and IL8 secretion levels: not at all altered
[3]
  inhibition at 10 µM: 47%

## CCOc1cc2c(cc1OCC)C(c1ccccc1)=NCC(=O)N2 [XXIIag, 7,8-diethoxy-5-phenyl-1,3-dihydro-2H-1,4-benzodiazepin-2-one]
[1]
  PDE1 percentage inhibition at 10 μM: 46%
[2]; in words
  inhibition of the secretion of IL1β: capable of inhibiting the secretion
[3]
  inhibition at 10 µM: 22%
